What was measured:
IMPDH2 (C140) = molecular target: T1, IMPDH2 (C140) (Homo sapiens, UniProt P12268); assay: Click probe 18 labeling of recombinant IMPDH2 and its competition; format: binding; details: probe 18 25 μM
T1 construct: Full length cDNAs encoding for IDH1 (Open Biosystems, Clone ID: 3880331) and IMPDH2 (Open Biosystems, Clone ID: 3447994); His6 (C); made in house; host or cells: E. coli BL21(DE3)

[1] = tested on: cysteines in MDA-MB-231 and Ramos cell proteomes; assay: Competitive isoTOP-ABPP in cell lysates (in vitro): proteomic reactivity / liganded cysteine rate; format: binding, human; details: for proteomic reactivity value (liganded cysteine rate): fragment 500 μM, % of quantified cysteines with R ≥4
Method: All cell lines were obtained from ATCC, were used with a low passage number and were grown at 37° C. with 5% CO2. MDA-MB-231 cells and HEK-293T cells were grown in DMEM supplemented with 10% fetal bovine serum, penicillin, streptomycin and glutamine. Jurkat, Ramos and MUM2C cells were grown in RPMI-1640 medium supplemented with 10% fetal bovine serum, penicillin and streptomycin. For in vitro labeling, cells were grown to 100% confluence for MDA-MB-231 cells or until cell density reached 1.5 million cells/mL for Ramos and Jurkat cells. […] Cell pellets were lysed by sonication and fractionated (100,000 g, 45 min) to yield soluble and membrane fractions, which were then adjusted to a final protein concentration of 1.5 mg/mL for proteomics experiments and 1 mg/mL for gel-based ABPP experiments. The soluble lysate was prepared fresh from frozen pellets directly before each experiment. Protein concentration was determined using the Bio-Rad DC™ protein assay kit.
For each sample, 100 μL of streptavidin-agarose beads slurry (Pierce) was washed in 10 mL PBS and then resuspended in 5 mL PBS. The SDS-solubilized proteins were added to the suspension of streptavidin-agarose beads and the bead mixture was rotated for 3 h at ambient temperature. After incubation, the beads were pelleted by centrifugation (1,400 g, 3 min) and were washed (2×10 mL PBS and 2×10 mL water).
The beads were transferred to eppendorf tubes with 1 mL PBS, centrifuged (1,400 g, 3 min), and resuspended in PBS containing 6 M urea (500 μL). To this was added 10 mM DTT (25 μL of a 200 mM stock in water) and the beads were incubated at 65° C. for 15 mins. 20 mM iodoacetamide (25 μL of a 400 mM stock in water) was then added and allowed to react at 37° C. for 30 mins with shaking. The bead mixture was diluted with 900 μL PBS, pelleted by centrifugation (1,400 g, 3 min), and resuspended in 200 μL PBS. To this was added 1 mM CaCl2 ([…]) and trypsin (2 μg, Promega, sequencing grade) and the digestion was allowed to proceed overnight at 37° C. with shaking. The beads were separated from the digest with Micro Bio-Spin columns (Bio-Rad) by centrifugation (1,000 g, 1 min), washed (2×1 mL PBS and 2×1 mL water) and then transferred to fresh eppendorfs with 1 mL water. The washed beads were washed once further in 140 μL TEV buffer (50 mM Tris, pH 8, 0.5 mM EDTA, 1 mM DTT) and then resuspended in 140 μL TEV buffer. 5 μL TEV protease (80 μM) was added and the reactions were rotated overnight at 29° C. The TEV digest was separated from the beads with Micro Bio-Spin columns by centrifugation (1,400 g, 3 min) and the beads were washed once with water (100 μL). The samples were then acidified to a final concentration of 5% (v/v) formic acid and stored at −80° C. prior to analysis.

Structure (SMILES) | inhibition of 18 labeling of IMPDH2 by fragments (IMPDH2 (C140)) | proteomic reactivity value (liganded cysteine rate) [1] [%] | relative proteomic reactivity (in words) ([1]; 500 μM, electrophiles on common 3,5-di(trifluoromethyl)phenyl group)
C=CC(=O)Nc1cc(C(F)(F)F)cc(C(F)(F)F)c1 [compound 14] | inhibited | 3.4 | 
CC(=O)Nc1cc(C(F)(F)F)cc(C(F)(F)F)c1 [compound 17] |  | < 0.2 | negligible activity

From US10670605B2, “Cysteine reactive probes and uses thereof” (The Scripps Research Institute, priority 2015, dated 2020)
